Results published in patent publication US20260265190A1, “AROMATIC COMPOUNDS FOR USE AS PROTEIN PHOSPHATASE 2A (PP2A) MODULATORS” (RAPPTA THERAPEUTICS OY, priority 2022, published 2026).

What was measured:
HCC1937 cells = experiment: Cell viability assay (MTS), HCC1937 cell line; format: cell-based; conditions: Homo sapiens, HCC1937 cell line (footnote a), 48 hours
Description: HCC1937 cells are plated in a 96 well plate format at a density of 10,000 cells per well. After incubation overnight, cells are treated with a compound (e.g., compound 5) at the following concentrations: 80, 40, 20, 10, 5, 2.5, 1.25 μM. Compound concentrations are prepared in RPMI via serial dilutions from a starting stock of 80 mM. Forty-eight (48) hours after compound treatment, cell viability is assessed using the Promega CellTiter 96 aqueous one proliferation assay (Promega G3582, MTS assay) according to manufacturer's protocol.
(§1) The cell viability data was analyzed with GraphPad Prism software. The values were log transformed and analyzed with non-linear regression (curve-fit) using log (inhibitor) vs. response—variable slope (four parameters) and constraining the bottom to equal zero. Unless otherwise indicated, the GI50 values provided in Table 1 correspond to the LNCaP cell viability assays.

LNCaP cells = experiment: Cell viability assay (MTS), LNCaP cell line; format: cell-based; conditions: Homo sapiens, 48 hours
Description: LNCaP cell line was used for the cell viability assay. LNCaP cells were plated in 96-well plates at a density of 5000 cells per well. After 24 hours of plating, the cells were treated with increasing doses of compound (e.g., compounds 1-38) ranging from 1 μM to 80 μM. Relative cell numbers were analyzed after 48 hours using 3-(4,5-dimethylthiazol-2-yl)-5-(3-carboxymethoxyphenyl)-2-(4-sulfophenyl)-2H-tetrazolium (MTS) assay (Promega) according to the manufacturer's instructions.
as §1

Compound `O=S(=O)(N[C@H](c1ccc(Cl)cn1)C1CCNCC1)c1ccc(OC(F)(F)F)cc1` [Example 15, (S)-N-((5-chloropyridin-2-yl)(piperidin-4-yl)methyl)-4-(trifluoromethoxy)benzenesulfonamide] has a GI50 (HCC1937 cells) of 48.7 µM.
`CC(C)Oc1ccc(S(=O)(=O)NC2(c3ccc(Cl)cn3)CCNCC2)cn1` [Example 5, N-(4-(5-chloropyridin-2-yl)piperidin-4-yl)-6-isopropoxypyridine-3-sulfonamide] gave a GI50 (HCC1937 cells) of 51.4 µM.
Compound `O=S(=O)(N[C@@H](CN1CCNCC1)c1ccc(Cl)cc1)c1ccccc1` [Example 25, (R)-N-(1-(4-chlorophenyl)-2-(piperazin-1-yl)ethyl)benzenesulfonamide] has a GI50 (HCC1937 cells) of 40.6 µM.
`CN(C)CC(NC(=O)c1ccc(OC(F)(F)F)cc1)c1ccc(Cl)c(Cl)c1` (stereo not shown) [Example 31, N-(1-(3,4-dichlorophenyl)-2-(dimethylamino)ethyl)-4-(trifluoromethoxy)benzamide] was tested, and the GI50 (LNCaP cells) was 41.9 µM.
With `O=S(=O)(NC(c1ccccc1)C1CCNCC1)c1ccc(OC(F)(F)F)cc1` (stereo not shown) [Example 10, N-(phenyl(piperidin-4-yl)methyl)-4-(trifluoromethoxy)benzenesulfonamide] the GI50 (LNCaP cells) was 20.5 µM.
`FC(F)(F)Oc1ccc(-c2cn(C3(c4ccc(Cl)cc4)CCNC3)cn2)cc1` (stereo not shown) [Example 36, 1-(3-(4-chlorophenyl)pyrrolidin-3-yl)-4-(4-(trifluoromethoxy)phenyl)-1H-imidazole] showed a GI50 (LNCaP cells) of 25.2 µM.
`Cc1cc(C2(NS(=O)(=O)c3ccc(OC(F)(F)F)cc3)CCNCC2)ccc1Cl` [Example 4, N-(4-(4-chloro-3-methylphenyl)piperidin-4-yl)-4-(trifluoromethoxy)benzenesulfonamide] showed a GI50 (LNCaP cells) of 6.76 µM.
With `Nc1cc(S(=O)(=O)NC(CN2CCNCC2)c2ccc(Cl)cc2)ccc1OC(F)(F)F` (stereo not shown) [Example 23, 3-amino-N-(1-(4-chlorophenyl)-2-(piperazin-1-yl)ethyl)-4-(trifluoromethoxy)benzenesulfonamide] the GI50 (LNCaP cells) was 30.8 µM.
`CC(C)Oc1ccc(S(=O)(=O)NC(CN2CCNCC2)c2ccc(F)c(F)c2)cn1` (stereo not shown) [Example 24, N-(1-(3,4-difluorophenyl)-2-(piperazin-1-yl)ethyl)-6-isopropoxypyridine-3-sulfonamide] was tested, and the GI50 (HCC1937 cells) was 27 µM.
In the case of `O=S(=O)(Nc1ccc(OC(F)(F)F)cc1)C1(c2ccccc2)CCNCC1` [Example 38, 4-phenyl-N-(4-(trifluoromethoxy)phenyl)piperidine-4-sulfonamide], the GI50 (LNCaP cells) is reported as 23 µM.
Work on `CN(C)CC(c1ccc(Cl)c(Cl)c1)n1cnc(-c2ccc(OC(F)(F)F)cc2)c1` (stereo not shown) [Example 35, 2-(3,4-dichlorophenyl)-N,N-dimethyl-2-(4-(4-(trifluoromethoxy)phenyl)-1H-imidazol-1-yl)ethan-1-amine] yielded a GI50 (LNCaP cells) of 20.4 µM.
In the case of `O=S(=O)(NC1(c2cc(F)cc(F)c2)CCNCC1)c1ccc(OC(F)(F)F)cc1` [Example 2, N-(4-(3,5-difluorophenyl)piperidin-4-yl)-4-(trifluoromethoxy)benzenesulfonamide], the GI50 (LNCaP cells) is reported as 15.5 µM.
`O=S(=O)(NC1(c2ccc(F)c(F)c2)CCNC1)c1ccc(OC(F)(F)F)cc1` (stereo not shown) [Example 1, N-(3-(3,4-difluorophenyl)pyrrolidin-3-yl)-4-(trifluoromethoxy)benzenesulfonamide] showed a GI50 (LNCaP cells) of 25.7 µM.
For `O=S(=O)(N[C@H](c1ccc(Cl)cc1)C1CCNCC1)c1ccc(OC(F)(F)F)cc1` [Example 14, (S)-N-((4-chlorophenyl)(piperidin-4-yl)methyl)-4-(trifluoromethoxy)benzenesulfonamide], the GI50 (LNCaP cells) was 11.3 µM.
Work on `CC(C)Oc1ccc(S(=O)(=O)N[C@H](c2ccccc2)C2CCNCC2)cn1` [Example 19, (S)-6-isopropoxy-N-(phenyl(piperidin-4-yl)methyl)pyridine-3-sulfonamide] yielded a GI50 (HCC1937 cells) of 74.5 µM.
With `O=S(=O)(NC(CN1CCNCC1)c1ccc(F)cc1F)c1ccc(OC(F)(F)F)cc1` (stereo not shown) [Example 20, N-(1-(2,4-difluorophenyl)-2-(piperazin-1-yl)ethyl)-4-(trifluoromethoxy)benzenesulfonamide] the GI50 (LNCaP cells) was 27.1 µM.
With `CN(C)CC(NC(=O)c1ccc(OC(F)(F)F)c([N+](=O)[O-])c1)c1ccc(Cl)c(Cl)c1` (stereo not shown) [Example 32, N-(1-(3,4-dichlorophenyl)-2-(dimethylamino)ethyl)-3-nitro-4-(trifluoromethoxy)benzamide] the GI50 (LNCaP cells) was 2.1 µM.
In the case of `FC(F)(F)Oc1ccc(-c2cnn(C3(c4ccccc4)CCNC3)c2)cc1` (stereo not shown) [Example 37, 1-(3-phenylpyrrolidin-3-yl)-4-(4-(trifluoromethoxy)phenyl)-1H-pyrazole], the GI50 (LNCaP cells) is reported as 30.5 µM.
Compound `CC(C)Oc1ccc(S(=O)(=O)N[C@@H](c2ccccc2)C2CCNCC2)cn1` [Example 18, (R)-6-isopropoxy-N-(phenyl(piperidin-4-yl)methyl)pyridine-3-sulfonamide] has a GI50 (HCC1937 cells) of 74.3 µM.
In the case of `CC(C)Oc1ccc(S(=O)(=O)NC2(c3ccc(F)c(F)c3)CCNCC2)cn1` [Example 7, N-(4-(3,4-difluorophenyl)piperidin-4-yl)-6-isopropoxypyridine-3-sulfonamide], the GI50 (LNCaP cells) is reported as 36.8 µM.
In the case of `O=S(=O)(N[C@@H](c1ccccc1)C1CCNCC1)c1ccc(OC(F)(F)F)cc1` [Example 11, (R)-N-(phenyl(piperidin-4-yl)methyl)-4-(trifluoromethoxy)benzenesulfonamide], the GI50 (LNCaP cells) is reported as 24.7 µM.
`O=S(=O)(NC(CN1CCNCC1)c1ccc(F)c(F)c1)c1ccc(OC(F)(F)F)cc1` (stereo not shown) [Example 21, N-(1-(3,4-difluorophenyl)-2-(piperazin-1-yl)ethyl)-4-(trifluoromethoxy)benzenesulfonamide] gave a GI50 (LNCaP cells) of 33.8 µM.
